According to patent US20250163054A1, “SUBSTITUTED BICYCLIC HETEROARYL COMPOUNDS USEFUL AS INHIBITORS OF TLR9” (Bristol-Myers Squibb Company, priority 2022, published 2025):

How the values were obtained:
Format in all cases: cell-based
[1] = molecular target: T1, human TLR9 (Homo sapiens, UniProt Q9NR96); test: TLR7/8/9 Inhibition Reporter Assays (TLR9); details: HEK-Blue cells overexpressing human TLR9, SEAP reporter, stimulated with TLR9 ligand ODN2006
T1 construct: host or cells: HEK-Blue cells (HEK293-derived reporter line)
T1 sequence (Q9NR96 26-1032): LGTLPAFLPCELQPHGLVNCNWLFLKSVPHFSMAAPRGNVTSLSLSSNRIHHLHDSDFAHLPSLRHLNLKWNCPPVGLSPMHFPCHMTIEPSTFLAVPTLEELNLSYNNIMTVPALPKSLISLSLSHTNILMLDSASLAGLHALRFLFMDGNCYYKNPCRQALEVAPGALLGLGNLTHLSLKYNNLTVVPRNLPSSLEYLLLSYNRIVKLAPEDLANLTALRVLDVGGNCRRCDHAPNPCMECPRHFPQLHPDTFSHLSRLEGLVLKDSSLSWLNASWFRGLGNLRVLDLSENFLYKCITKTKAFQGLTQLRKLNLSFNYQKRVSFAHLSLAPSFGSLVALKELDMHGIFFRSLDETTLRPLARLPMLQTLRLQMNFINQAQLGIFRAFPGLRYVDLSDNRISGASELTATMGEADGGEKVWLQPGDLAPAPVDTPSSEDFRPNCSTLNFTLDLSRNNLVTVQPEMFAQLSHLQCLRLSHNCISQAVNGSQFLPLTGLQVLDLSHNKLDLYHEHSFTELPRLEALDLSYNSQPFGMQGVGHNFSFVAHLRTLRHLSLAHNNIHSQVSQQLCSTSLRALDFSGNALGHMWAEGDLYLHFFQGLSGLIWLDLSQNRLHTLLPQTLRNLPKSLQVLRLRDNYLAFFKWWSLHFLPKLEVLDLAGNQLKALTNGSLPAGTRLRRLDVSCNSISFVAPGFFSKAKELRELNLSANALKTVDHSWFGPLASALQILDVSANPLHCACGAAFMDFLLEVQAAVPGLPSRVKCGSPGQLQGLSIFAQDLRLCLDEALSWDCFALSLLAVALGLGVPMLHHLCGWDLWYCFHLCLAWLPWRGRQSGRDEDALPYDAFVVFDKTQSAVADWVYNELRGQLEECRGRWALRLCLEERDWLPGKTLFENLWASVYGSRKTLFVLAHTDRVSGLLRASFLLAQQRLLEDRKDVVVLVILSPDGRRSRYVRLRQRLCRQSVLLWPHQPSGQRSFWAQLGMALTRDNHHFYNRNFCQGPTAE
Description: (§1) HEK-Blue™-cells (Invivogen) overexpressing human TLR7, TLR8 or TLR9 receptors were used for screening inhibitors of these receptors using an inducible SEAP (secreted embryonic alkaline phosphatase) reporter gene under the control of the IFN-β minimal promoter fused to five NF-κB and AP-1-binding sites. Cells are seeded into Greiner 384 well plates (15000 cells per well) that are predispensed (by ECHO) with testing compounds in DMSO to yield a final dose response concentration range of 0.85 nM-[…]. After a 60 minute compound pre-treatment in 37° C. incubator, the cells are then stimulated with a TLR7 ligand (gardiquimod at a final concentration of […]), TLR8 ligand (R848 at a final concentration of […]) or TLR9 ligand (ODN2006 at a final concentration of 200 nM) to activate NF-κB and AP-1 which induce the production of SEAP. After a 22 hour incubation at 37° C., 5% CO2, SEAP levels are determined with the addition of HEK-Blue™ Detection reagent (Invivogen), a cell culture medium that allows for detection of SEAP, according to manufacturer's specifications. The percent inhibition is determined as the % reduction in the HEK-Blue signal present in wells treated with agonist plus DMSO alone compared to wells treated with a known inhibitor.

[2] = molecular target: T2, human TLR7 (Homo sapiens, UniProt Q9NYK1); test: TLR7/8/9 Inhibition Reporter Assays (TLR7); details: HEK-Blue cells overexpressing human TLR7, SEAP reporter, stimulated with TLR7 ligand gardiquimod
T2 construct: host or cells: HEK-Blue cells (HEK293-derived reporter line)
T2 sequence (Q9NYK1 27-1049): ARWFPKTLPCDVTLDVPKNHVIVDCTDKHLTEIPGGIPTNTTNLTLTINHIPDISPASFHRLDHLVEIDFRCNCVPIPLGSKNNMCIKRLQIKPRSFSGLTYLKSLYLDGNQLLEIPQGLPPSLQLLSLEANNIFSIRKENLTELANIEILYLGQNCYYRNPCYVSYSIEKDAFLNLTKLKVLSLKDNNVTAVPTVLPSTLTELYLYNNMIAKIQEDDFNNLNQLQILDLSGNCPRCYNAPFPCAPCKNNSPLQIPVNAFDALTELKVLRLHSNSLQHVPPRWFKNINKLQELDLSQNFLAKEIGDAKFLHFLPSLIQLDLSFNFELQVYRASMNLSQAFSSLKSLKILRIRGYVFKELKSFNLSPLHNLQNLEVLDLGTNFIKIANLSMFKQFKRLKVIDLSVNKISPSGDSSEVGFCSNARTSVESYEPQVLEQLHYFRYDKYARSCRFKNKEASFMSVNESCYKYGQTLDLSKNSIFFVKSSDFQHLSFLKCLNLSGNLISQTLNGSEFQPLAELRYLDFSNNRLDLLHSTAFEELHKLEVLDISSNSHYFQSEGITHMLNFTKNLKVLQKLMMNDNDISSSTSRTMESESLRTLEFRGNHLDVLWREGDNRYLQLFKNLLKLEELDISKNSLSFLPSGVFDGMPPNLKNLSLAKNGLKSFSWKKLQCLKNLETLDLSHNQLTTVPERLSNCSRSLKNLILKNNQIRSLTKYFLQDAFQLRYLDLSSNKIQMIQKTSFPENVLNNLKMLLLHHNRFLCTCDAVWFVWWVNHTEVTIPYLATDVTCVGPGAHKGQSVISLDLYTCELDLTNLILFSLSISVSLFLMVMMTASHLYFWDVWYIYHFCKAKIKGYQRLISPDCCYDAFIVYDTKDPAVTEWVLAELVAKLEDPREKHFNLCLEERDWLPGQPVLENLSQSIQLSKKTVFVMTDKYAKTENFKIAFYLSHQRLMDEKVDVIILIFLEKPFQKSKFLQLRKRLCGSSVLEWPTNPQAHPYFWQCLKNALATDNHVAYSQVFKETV
Description: as §1

[3] = molecular target: T3, human TLR8 (Homo sapiens, UniProt Q9NR97); test: TLR7/8/9 Inhibition Reporter Assays (TLR8); details: HEK-Blue cells overexpressing human TLR8, SEAP reporter, stimulated with TLR8 ligand R848
T3 construct: host or cells: HEK-Blue cells (HEK293-derived reporter line)
T3 sequence (Q9NR97 27-1041): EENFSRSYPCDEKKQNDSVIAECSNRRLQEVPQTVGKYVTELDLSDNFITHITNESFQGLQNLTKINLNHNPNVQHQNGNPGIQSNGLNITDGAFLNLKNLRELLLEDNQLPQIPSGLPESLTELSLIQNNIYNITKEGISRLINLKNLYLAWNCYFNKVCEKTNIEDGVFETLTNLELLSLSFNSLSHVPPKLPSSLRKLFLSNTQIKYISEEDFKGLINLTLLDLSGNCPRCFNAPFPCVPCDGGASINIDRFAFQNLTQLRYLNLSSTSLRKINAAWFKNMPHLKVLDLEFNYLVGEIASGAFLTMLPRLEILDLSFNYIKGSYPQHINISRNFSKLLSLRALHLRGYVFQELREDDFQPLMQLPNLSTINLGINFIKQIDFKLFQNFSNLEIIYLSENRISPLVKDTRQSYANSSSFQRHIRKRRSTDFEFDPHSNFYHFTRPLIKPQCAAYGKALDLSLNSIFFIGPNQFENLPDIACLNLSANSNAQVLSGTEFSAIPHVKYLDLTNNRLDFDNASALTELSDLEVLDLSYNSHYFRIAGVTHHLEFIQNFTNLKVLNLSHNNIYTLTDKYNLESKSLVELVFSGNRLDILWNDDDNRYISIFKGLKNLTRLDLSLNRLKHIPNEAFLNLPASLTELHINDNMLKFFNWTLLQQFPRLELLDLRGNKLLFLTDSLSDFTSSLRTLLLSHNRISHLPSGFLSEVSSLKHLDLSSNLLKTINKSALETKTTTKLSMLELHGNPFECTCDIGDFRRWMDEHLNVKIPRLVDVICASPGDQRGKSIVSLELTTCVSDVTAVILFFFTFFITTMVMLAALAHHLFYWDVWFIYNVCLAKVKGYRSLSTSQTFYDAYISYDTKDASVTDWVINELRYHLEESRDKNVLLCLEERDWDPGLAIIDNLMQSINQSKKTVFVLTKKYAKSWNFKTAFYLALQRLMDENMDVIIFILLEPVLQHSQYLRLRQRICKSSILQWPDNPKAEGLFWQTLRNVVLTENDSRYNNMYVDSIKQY
Description: as §1

| IC50 [1] | IC50 [2] | IC50 [3] | SMILES |
| --- | --- | --- | --- |
| 0.013 µM | 0.87 µM | 6.9 µM | COc1ccc(-c2nc3c(C)nc(-c4ccc(N5CC6(C5)CN(C5CCC5)C6)cc4)cc3n2C)cc1OC [Example 77, 6-(4-(6-cyclobutyl-2,6-diazaspiro[3.3]heptan-2-yl)phenyl)-2-(3,4-dimethoxyphenyl)-1,4-dimethyl-1H-imidazo[4,5-c]pyridine] |
| 0.13 µM | 1.1 µM | 3.7 µM | Cc1nc(-c2ccc(N3CC4(C3)CN(C3CCC3)C4)cc2)cc2c1nc(-c1ccc(S(C)(=O)=O)cc1)n2C [Example 79, 6-(4-(6-cyclobutyl-2,6-diazaspiro[3.3]heptan-2-yl)phenyl)-1,4-dimethyl-2-(4-(methylsulfonyl)phenyl)-1H-imidazo[4,5-c]pyridine] |
| 2.5 µM | 7.8 µM | > 50 µM | Cc1nc(-c2ccc(N3CCC(N4CCCC4)CC3)cc2)c(F)c2c1nc(-c1ccc(S(C)(=O)=O)cc1)n2C [Example 44, 7-fluoro-1,4-dimethyl-2-(4-(methylsulfonyl)phenyl)-6-(4-(4-(pyrrolidin-1-yl)piperidin-1-yl)phenyl)-1H-imidazo[4,5-c]pyridine] |
| 0.13 µM | 1 µM | 17 µM | COc1ccc(-c2nc3c(C)nc(-c4ccc(N5CC6(CN(CC(C)C)C6)C5)cc4)cc3n2C)cc1OC [Example 71, 2-(3,4-dimethoxyphenyl)-6-(4-(6-isobutyl-2,6-diazaspiro[3.3]heptan-2-yl)phenyl)-1,4-dimethyl-1H-imidazo[4,5-c]pyridine] |
| 0.59 µM | 1.4 µM | > 50 µM | CC(C)CN1CCC(N2CCC(c3cc4c(nc(-c5ccc(S(C)(=O)=O)cc5)n4C)c(C(F)(F)F)n3)CC2)CC1 [Example 33, 6-(1′-isobutyl-[1,4′-bipiperidin]-4-yl)-1-methyl-2-(4-(methylsulfonyl)phenyl)-4-(trifluoromethyl)-1H-imidazo[4,5-c]pyridine] |
| 0.44 µM | 5.8 µM | 2.9 µM | CC(C)CN1CC2(C1)CN(c1ccc(-c3cc4c(cn3)nc(-c3ccc(S(C)(=O)=O)cc3)n4C3CC3)cc1)C2 [Example 90, 1-cyclopropyl-6-(4-(6-isobutyl-2,6-diazaspiro[3.3]heptan-2-yl)phenyl)-2-(4-(methylsulfonyl)phenyl)-1H-imidazo[4,5-c]pyridine] |
| 0.89 µM | 6.4 µM | 13 µM | Cc1nc(-c2ccc(N3CCN(CC(C)(C)O)CC3)cc2)cc2c1nc(-c1ccc(S(C)(=O)=O)cc1)n2C [Example 8, 1-(4-(4-(1,4-dimethyl-2-(4-(methylsulfonyl)phenyl)-1H-imidazo[4,5-c]pyridin-6-yl)phenyl)piperazin-1-yl)-2-methylpropan-2-ol] |
| 0.089 µM | 1.3 µM | > 50 µM | COc1ccc(-c2nc3c(C)nc(-c4ccc(N5CC6(CN(CC(C)(C)O)C6)C5)cc4)cc3n2C)cc1OC [Example 58, 1-(6-(4-(2-(3,4-dimethoxyphenyl)-1,4-dimethyl-1H-imidazo[4,5-c]pyridin-6-yl)phenyl)-2,6-diazaspiro[3.3]heptan-2-yl)-2-methylpropan-2-ol] |
| 0.024 µM | 1.7 µM | 21 µM | COc1ccc(-c2nc3c(C)nc(-c4ccc(N5C[C@@H]6CN(C(C)C)C[C@@H]6C5)cc4)cc3n2C)cc1OC [Example 59, 2-(3,4-dimethoxyphenyl)-6-(4-((3aR,6aS)-5-isopropylhexahydropyrrolo[3,4-c]pyrrol-2(1H)-yl)phenyl)-1,4-dimethyl-1H-imidazo[4,5-c]pyridine] |
| 0.036 µM | 0.92 µM | > 50 µM | Cc1nc(C2CCN(C3CCN(CC(C)C)CC3)CC2)cc2c1nc(-c1ccc(S(C)(=O)=O)cc1)n2C [Example 39, 6-(1′-isobutyl-[1,4′-bipiperidin]-4-yl)-1,4-dimethyl-2-(4-(methylsulfonyl)phenyl)-1H-imidazo[4,5-c]pyridine] |
